Measurements published in patent publication US20180153995A1, “USE OF ANTIMICROBIAL POLYMERS FOR RE-SENSITIZATION OF MICROORGANISMS UPON EMERGENCE OF RESISTANCE TO ANTI-MICROBIAL AGENTS” (Technion Research & Development Foundation Limited, priority 2008, published 2018).
Converted amounts (≈) assume the structure as drawn. Like-named read-outs stand apart in the source and are kept apart here. Square brackets hold non-standard residues; d marks the D form. Peptide text beside a SMILES is read from it. 12Ado = NCCCCCCCCCCCC(=O)O

Assays:
MRSA 15903 [1] = experiment: microbe, parasite or virus in culture; assay type: cell-based, Staphylococcus aureus; settings: for MIC, ¼ + MIC OAK: with C12K(KNC10K)3NH2 (SEQ ID NO: 10) at ¼ of its MIC; for MIC, ½ + MIC OAK: with C12K(KNC10K)3NH2 (SEQ ID NO: 10) at ½ of its MIC; for MIC, ⅓ + MIC OAK: with C12K(KNC10K)3NH2 (SEQ ID NO: 10) at ⅓ of its MIC
Procedure: (§1) The fractionary inhibitory (FIC) concentration index for combinations of two antimicrobial agents was calculated as follows: FIC index=FICA+FICB=A/MICA+B/MICB where A and B are the MIC values of agent A and agent B in the combination, MICA and MICB are the MICs of agent A and agent B alone, and FICA and FICB are the FICs of agent A and agent B.
(§2) The FIC indexes were interpreted as follows: less than 0.5 indicates a clear re-sensitizing effect; from 0.5 to 4 indicates a marginal or null re-sensitizing effect; and over 4 indicates antagonism.
Experimental data for FIG. 4 were obtained as follows.

MRSA 15852 = assay type: cell-based, Staphylococcus aureus; settings: 15852
Procedure: as §1, §2

ATCC 25923 = experiment: microbe, parasite or virus in culture; assay type: cell-based, Staphylococcus aureus; settings: ATCC 25923
Procedure: (§3) MICs were determined by microdilution susceptibility testing in 96-well plates (by Nunc) using inocula of 10^5 bacteria per ml. Cell populations were evaluated by optical density measurements at 620 nm and were calibrated against a set of standards. Hundred (100) μl of a bacterial suspension were added to 100 μl of culture medium (control) or to 100 μl of culture medium containing various polymer concentrations in 2-fold serial dilutions. Inhibition of proliferation was determined by optical density measurements at 620 nm after an incubation period of 24 hours at 37° C.

ATCC 29213 = experiment: microbe, parasite or virus in culture; assay type: cell-based, Staphylococcus aureus; settings: ATCC 29213
Procedure: as §3, §1, §2

MRSA 15918 = experiment: microbe, parasite or virus in culture; assay type: cell-based, Staphylococcus aureus; settings: 15918
Procedure: as §3, §1, §2

MRSA 15903 [2] = experiment: Sub-MIC time-kill curves (CFU counts); assay type: cell-based, Staphylococcus aureus; settings: sub-MIC time-kill, single agent
Procedure: At the specified time points of incubation (37° C. under shaking), cultures were subjected to serial 10-fold dilutions (up to 10^6) by adding 50 μl of sample to 450 μl saline (0.85% NaCl). Cell counts were determined using the drop plate method (three 20-μl drops onto LB-agar plates). Plates were incubated at 37° C. and colonies were counted for the calculation after incubation for 24 hours.

E. coli AG100 = experiment: Antibiotic MIC with or without sub-MIC polymer (Tables 20, 21); assay type: cell-based, Escherichia coli
E. coli AG100/ks = experiment: as above; assay type: cell-based, Escherichia coli
E. coli D21 = experiment: as above; assay type: cell-based, Escherichia coli
E. coli G11a1 = experiment: as above; assay type: cell-based, Escherichia coli
Procedure: as §3

[3] = Staphylococcus aureus, MRSA, 24 h, MRSA 15903, antibiotic alone (Table 22), read-out: MIC, Alone

With NCCCCCCCCCCCC(=O)N[C@@H](CCCCN)C(=O)NCCCCCCCCCCCC(=O)N[C@@H](CCCCN)C(=O)N[C@@H](CCCCN)C(=O)NCCCCCCCCCCCC(=O)N[C@@H](CCCCN)C(N)=O [NC12(KNC12K)2NH2] (H-[12Ado]K[12Ado]KK[12Ado]K-NH2) the MIC (MRSA 15903 [1]; 15903) was 6.2 µM, the “improvement (decrease) in the polymer's MIC in presence of oxacillin” value (MRSA 15903 [1]; MRSA 15903, polymer + sub-MIC oxacillin) was “twofold” and the MIC of polymer (MRSA 15903 [1]; MRSA 15903, polymer alone) was 6.25 µM. For the same compound, the “optimal re-sensitization polymer concentration” value (MRSA 15903 [1]; MRSA 15903, with oxacillin) was 2.1 µM, the MIC (MRSA 15852) was 3.1 µM and the MIC (ATCC 25923) was 3.1 µM (≈ 3.48 µg/mL). For the same compound, the MIC (ATCC 29213) was 3.1 µM, the MIC (MRSA 15918) was 6.2 µM and the “bactericidal activity, agent alone” value (MRSA 15903 [2]) was “no bactericidal activity”.

With CC1(C)S[C@@H]2[C@H](NC(=O)[C@H](N)c3ccccc3)C(=O)N2[C@H]1C(=O)O [ampicillin] the “Antibiotic MIC, None” value (E. coli AG100; antibiotic alone (Table 20)) was 4 µg/mL, the “Antibiotic MIC, None” value (E. coli AG100; antibiotic alone (Table 21)) was 4 µg/mL and the “Antibiotic MIC, None” value (E. coli AG100/ks; antibiotic alone (Table 20)) was >512 µg/mL. The “Antibiotic MIC, None” value (E. coli AG100/ks; antibiotic alone (Table 21)) was >512 µg/mL, the “Antibiotic MIC in presence of C12K(NC8K)5NH2 (SEQ ID NO: 3), +¼ MIC” value (“Antibiotic MIC … (SEQ ID NO: 3), +¼ MIC” below) (E. coli AG100/ks; polymer at ¼ of its MIC) was >512 µg/mL and the “Antibiotic MIC in presence of C12K(NC8K)7NH2 (SEQ ID NO: 4), +¼ MIC” value (shortened to “Antibiotic MIC … (SEQ ID NO: 4), +¼ MIC”) (E. coli AG100/ks; polymer at ¼ of its MIC) was >512 µg/mL. The “Antibiotic MIC in presence of C12K(NC8K)5NH2 (SEQ ID NO: 3), +½ MIC” value (“Antibiotic MIC … (SEQ ID NO: 3), +½ MIC” for short) (E. coli AG100/ks; polymer at ½ of its MIC) was >512 µg/mL, the “Antibiotic MIC in presence of C12K(NC8K)7NH2 (SEQ ID NO: 4), +½ MIC” value (“Antibiotic MIC … (SEQ ID NO: 4), +½ MIC” below) (E. coli AG100/ks; polymer at ½ of its MIC) was >512 µg/mL and the “Antibiotic MIC in presence of C12K(NC8K)5NH2 (SEQ ID NO: 3), +⅓ MIC” value (shortened to “Antibiotic MIC … (SEQ ID NO: 3), +⅓ MIC”) (E. coli AG100/ks; polymer at ⅓ of its MIC) was >512 µg/mL. For the same compound, the “Antibiotic MIC in presence of C12K(NC8K)7NH2 (SEQ ID NO: 4), +⅓ MIC” value (“Antibiotic MIC … (SEQ ID NO: 4), +⅓ MIC” for short) (E. coli AG100/ks; polymer at ⅓ of its MIC) was >512 µg/mL, the “Antibiotic MIC, None” value (E. coli D21; antibiotic alone (Table 20)) was 64 µg/mL and the “Antibiotic MIC, None” value (E. coli D21; antibiotic alone (Table 21)) was 64 µg/mL. The “Antibiotic MIC … (SEQ ID NO: 3), +¼ MIC” value (E. coli D21; polymer at ¼ of its MIC) was 64 µg/mL, the “Antibiotic MIC … (SEQ ID NO: 4), +¼ MIC” value (E. coli D21; polymer at ¼ of its MIC) was 64 µg/mL and the “Antibiotic MIC … (SEQ ID NO: 3), +½ MIC” value (E. coli D21; polymer at ½ of its MIC) was 32 µg/mL. The “Antibiotic MIC … (SEQ ID NO: 4), +½ MIC” value (E. coli D21; polymer at ½ of its MIC) was 32 µg/mL, the “Antibiotic MIC … (SEQ ID NO: 3), +⅓ MIC” value (E. coli D21; polymer at ⅓ of its MIC) was 64 µg/mL and the “Antibiotic MIC … (SEQ ID NO: 4), +⅓ MIC” value (E. coli D21; polymer at ⅓ of its MIC) was 64 µg/mL. For the same compound, the “Antibiotic MIC, None” value (E. coli G11a1; antibiotic alone (Table 20)) was 64 µg/mL, the “Antibiotic MIC, None” value (E. coli G11a1; antibiotic alone (Table 21)) was 64 µg/mL and the “Antibiotic MIC … (SEQ ID NO: 3), +¼ MIC” value (E. coli G11a1; polymer at ¼ of its MIC) was 64 µg/mL. The “Antibiotic MIC … (SEQ ID NO: 4), +¼ MIC” value (E. coli G11a1; polymer at ¼ of its MIC) was 64 µg/mL, the “Antibiotic MIC … (SEQ ID NO: 3), +½ MIC” value (E. coli G11a1; polymer at ½ of its MIC) was 32 µg/mL and the “Antibiotic MIC … (SEQ ID NO: 4), +½ MIC” value (E. coli G11a1; polymer at ½ of its MIC) was 32 µg/mL. The “Antibiotic MIC … (SEQ ID NO: 3), +⅓ MIC” value (E. coli G11a1; polymer at ⅓ of its MIC) was 64 µg/mL and the “Antibiotic MIC … (SEQ ID NO: 4), +⅓ MIC” value (E. coli G11a1; polymer at ⅓ of its MIC) was 64 µg/mL.

In the case of Cc1nnc(SCC2=C(C(=O)O)N3C(=O)[C@@H](NC(=O)Cn4cnnn4)[C@H]3SC2)s1 [cefazolin], the “MIC, ¼ + MIC OAK” value (MRSA 15903 [1]; MRSA 15903) is reported as 16 µg/mL, the “MIC, ½ + MIC OAK” value (MRSA 15903 [1]; MRSA 15903) is reported as 2 to 4 µg/mL and the “MIC, ⅓ + MIC OAK” value (MRSA 15903 [1]; MRSA 15903) is reported as 8 to 16 µg/mL. It also gave an MIC (MRSA 15903 [1]; [3]) of 16 µg/mL.

CCN1CCN(C(=O)N[C@@H](C(=O)N[C@@H]2C(=O)N3C(C(=O)O)=C(CSc4nnnn4C)CS[C@H]23)c2ccc(O)cc2)C(=O)C1=O [cefoperazone] was tested, and the “MIC, ¼ + MIC OAK” value (MRSA 15903 [1]; MRSA 15903) was 16 µg/mL, the “MIC, ½ + MIC OAK” value (MRSA 15903 [1]; MRSA 15903) was 4 µg/mL and the “MIC, ⅓ + MIC OAK” value (MRSA 15903 [1]; MRSA 15903) was 8 to 16 µg/mL. The MIC (MRSA 15903 [1]; [3]) was 16 µg/mL.

CO/N=C(\C(=O)N[C@@H]1C(=O)N2C(C(=O)O)=C(COC(C)=O)CS[C@H]12)c1csc(N)n1 [cefotaxime] was tested, and the “MIC, ¼ + MIC OAK” value (MRSA 15903 [1]; MRSA 15903) was 32 µg/mL, the “MIC, ½ + MIC OAK” value (MRSA 15903 [1]; MRSA 15903) was 4 µg/mL and the “MIC, ⅓ + MIC OAK” value (MRSA 15903 [1]; MRSA 15903) was 16 µg/mL. The MIC (MRSA 15903 [1]; [3]) was 32 µg/mL.

In the case of CN[C@H](CC(C)C)C(=O)N[C@H]1C(=O)N[C@@H](CC(N)=O)C(=O)N[C@H]2C(=O)N[C@H]3C(=O)N[C@H](C(=O)N[C@H](C(=O)O)c4cc(O)cc(O)c4-c4cc3ccc4O)[C@H](O)c3ccc(c(Cl)c3)Oc3cc2cc(c3O[C@@H]2O[C@H](CO)[C@@H](O)[C@H](O)[C@H]2O[C@H]2C[C@](C)(N)[C@H](O)[C@H](C)O2)Oc2ccc(cc2Cl)[C@H]1O [vancomycin], the “MIC, ¼ + MIC OAK” value (MRSA 15903 [1]; MRSA 15903) is reported as 1 µg/mL, the “MIC, ½ + MIC OAK” value (MRSA 15903 [1]; MRSA 15903) is reported as 1 µg/mL and the “MIC, ⅓ + MIC OAK” value (MRSA 15903 [1]; MRSA 15903) is reported as 1 µg/mL. The MIC (MRSA 15903 [1]; Staphylococcus aureus, MRSA, 24 h, read-out: MIC, Alone) was 1 µg/mL.
